Source: patent US20050070496A1, “Semi-solid formulations for the oral administration of taxoids” (Aventis Pharma S. A., priority 2003, published 2005)
Marks after values point to notes of the source that are not given here.

How the values were obtained:
[1] = Solubility of taxoid of formula Ib in liquid excipients; type: physicochemical
From the text: After a first selection of proper excipients (in terms of safety and developability), the solubility of taxoids in the excipient was the first screening step for the choice of the excipient and the selection of the prototypes. Then, the prototypes (liquid or semi-solid) were manufactured, and characterized in terms of in vitro behavior in simulated GI media and chemical stability. Finally, the physical properties and stability of the semi-solid prototypes have been investigated.

[2] = Solubility in semi-solid excipients (at the melted state) and solid excipients
From the text: The solubility of taxoid of formula Ib at room temperature has been determined by X ray diffraction.

CC(=O)O[C@H]1C(=O)[C@]23C[C@H]2C[C@H]2OC[C@@]2(OC(C)=O)[C@H]3[C@H](OC(=O)c2ccccc2)[C@]2(O)C[C@H](OC(=O)[C@H](O)[C@@H](NC(=O)OC(C)(C)C)c3ccccc3)C(C)=C1C2(C)C [taxoid of formula Ib]
Solubility ([1]; in Capryol 90 (Polyethylene glycol monocaprylate)): 281 mg/g | Solubility ([1]; in Cremophor EL (POE hydrogenated castor oil)): 94 mg/g | Solubility ([1]; in Crossential O94 (Oleic acid)): 37 mg/g | Solubility ([1]; in Edenor C8 98-100 (Caprylic acid)): 138 mg/g | Solubility ([1]; in Ethanol): 250 mg/g | Solubility ([1]; in HPβ cyclodextrin): 0.28 mg/g | Solubility ([1]; in Labrafil M1944 CS (oleyl macrogol-6-glycerides)): 52 mg/g | Solubility ([1]; in Labrasol (Caprylocaproyl macrogol-8 glycerides)): 244 mg/g | Solubility ([1]; in Lauroglycol 129 (PG monolaurate)): 129 mg/g | Solubility ([1]; in Maisine 35-1 (Glyceryl linoleate)): 129 mg/g | Solubility ([1]; in Miglyol 812N (caprylic/capric triglyceride)): 65 mg/g | Solubility ([1]; in PEG 400 (polyethylene glycol 400)): 121 mg/g | Solubility ([1]; in PS 80 VG (POE monooleate)): 144 mg/g | Solubility ([1]; in PS 80 VG pH 6 (POE monooleate)): 135 mg/g | Solubility ([1]; in Peceol (Glyceryl monooleate)): 106 mg/g | Solubility ([1]; in Phosal 50 PG (Phosphatidylcholine ≧ 50% in propylene glycol)): 27 mg/g | Solubility ([1]; in Phosal 50 SA (Phosphatidylcholine 50 ± 3% in alcohol, safflower oil, glyceryl stearate, coconut oil and ascorbyl palmitate)): 97 mg/g | Solubility ([1]; in Phosal 75 SA (Phosphatidylcholine 75 ± 3% in alcohol, safflower oil, glyceryl stearate, coconut oil and ascorbyl palmitate)): 122 mg/g | Solubility ([1]; in Plurol diisostearic): 23 mg/g | Solubility ([1]; in Plurol oleic CC497 (Polyglyceryl 6 oleate)): 42 mg/g | Solubility ([1]; in Soybean oil (glycerides, linoleic acid 50-57%)): 16 mg/g | Solubility ([1]; in Transcutol (Diethylene glycol monoethyl ether)): 197 mg/g | Solubility ([2]; in Gelucire 44/14 (lauroyl macrogol-32 glycerides), excipient melted up to 70° C.): 96 mg/g | Solubility ([2]; in Imwitor 988 (Glyceryl mono-dicaprylate), semi-solid excipient melted up to 70° C.): 283 mg/g | Solubility ([2]; in Myrj 45 (POE stearate), excipient melted up to 70° C.): 128 mg/g | Solubility ([2]; in PEG 4000 (polyethylene glycol 1500), excipient melted up to 70° C.): >50* mg/g | Solubility ([2]; in Vitamin E TPGS (α-tocopherol PEG succinate), excipient melted up to 70° C.): 73 mg/g
